Data: patent US20250270648A1, “MOLECULAR SIGNATURE FOR ASSESSING THE RESPONSIVENESS OF CANCER TO MITOCHONDRIA-TARGETED ANTIOXIDANTS” (UNIVERSITÉ CATHOLIQUE DE LOUVAIN, priority 2021, published 2025)

Key:
[1] = tested on: murine 4T1 breast cancer cell line; assay: Mitochondrial superoxide, mitoSOX FACS; type: cell-based, mouse
Method: (§1) Mitochondrial superoxide was measured in cells loaded with 3 μM of MitoSOX (Invitrogen®, catalogue #M36008) for 10 min at 37° C. Cells were gently detached with Accutase® (Thermo Fisher Scientific®, catalogue #A1110501), resuspended in PBS containing 10 mM of D-Glucose and 2% FBS, and immediately analyzed by flow cytometry using a FACSCantoII flow cytometer (BD Biosciences®).

[2] = tested on: human MDA-MB-231 breast cancer cell line; assay: Mitochondrial superoxide, mitoSOX FACS; type: cell-based; details: increasing doses of cisplatin, 48 h
Method: as §1

4T1 cells [3] = assay: Migration towards 0.5% serum, chemotaxis chamber; type: cell-based, mouse; details: 16 h pretreatment, 6 h recovery
Method: (§2) Previous to migration and invasion assays, cells were pretreated with the indicated amounts of drugs for 16 h, and left to recover for 6 h in full culture medium. Migration assays were performed in a NeuroProbe® standard 48-well chemotaxis chamber according to manufacturer's instructions. Briefly, the bottom chamber was filled with DMEM containing 0.5% serum as a chemo-attractant. Fifty thousand cells were seeded in the upper chamber in the same medium but without serum ±MitoQ where indicated, and allowed to migrate overnight through an 8-μm pore-size polycarbonate membrane. A similar stimulation protocol was used for invasion assays, with the difference of using Matrigel-coated transwells (Corning®). With MCF7 cells, membranes were previously incubated for 30 min with a solution of Vitronectin 10 μg/ml (Sigma-Aldrich®, #SRP3186). Migrated/invaded cells were fixed and stained with 100 μl of a 0.23% crystal violet solution (Sigma-Aldrich®, #C0775) for 10 min before counting on a SpectraMax™ i3 spectrophotometer equipped with a MiniMax imaging cytometer, using the SoftMax Pro software. Data were normalized to vehicle-treated cells (control).

4T1 breast tumors = assay: 4T1-bearing mice, doxorubicin ±MitoTEMPO; type: in vivo, mouse; details: doxorubicin 4 mg/kg i.v. weekly ×3 + MitoTEMPO 0.7 mg/kg i.p. daily; lungs day +21
Method: On day −8, nine-week-old female Balb/cJRj mice (Janvier®) were injected with 200,000 viable 4T1 cells into the fourth mammary fat pad. When tumors reached an average diameter of 4 mm (day 0) and became palpable in all mice, an intravenous injection of doxorubicin (4 mg/kg) was administered once per week during 3 weeks (30) ±daily intraperitoneal injections of MitoTEMPO (0.7 mg/kg) or the same volume of vehicle (DMSO) until the end of the experiment. Tumor volume was determined three times a week using an electronic caliper and normalized to tumor volume at day 0. At the end-point (day +21), mice were sacrificed and their lungs were fixed in formalin. Tissues were stained with hematoxylin & eosin (H&E). Pictures of whole lung slides were acquired with a slide scanner (SCN400, Leica®) and analyzed with the Digital Image Hub software (DIH, Leica®). The area occupied by metastases was normalized to the lung area analyzed.

[4] = tested on: human MCF7 breast cancer cells; assay: Seahorse XF96 OCR and proton leak; type: cell-based; details: 24 h
Method: (§3) Cellular oxygen consumption rates (OCRs) were assessed on a Seahorse XF96® bioenergetic analyzer using the Mito Stress® Kit following manufacturer's instructions (Agilent Technologies®). Briefly, 40,000 cells were plated and left to adhere for 24 h before treatment with the indicated doses DXR. Basal mitochondrial oxygen consumption (mtOCR) was identified as the portion of OCR sensitive to 0.5 μM of Complex I inhibitor rotenone together with 0.5 μM of Complex III inhibitor antimycin A. Proton leak corresponded to the portion of mtOCR resistant to 1 μM of ATP synthase inhibitor oligomycin. Maximal OCR was determined after mitochondrial potential disruption using 1 μM of ionophore carbonyl cyanide-4-(trifluoromethoxy)phenylhydrazone (FCCP). At the end of the experiment, cells were lysed in 30 μl of NaOH 0.5 M, and proteins were quantified with the Bradford method in order to normalize data by total protein content. Lactate and glucose concentrations were measured on deproteinized cell supernatants using an ISCUSflex CMA600™ analyzer (Aurora Borealis®), as previously described (Sonveaux et al.; PLoS. One 2012; 7, e33418).

[5] = tested on: murine 4T1 breast cancer cells; assay: Seahorse XF96 OCR and proton leak; type: cell-based, mouse; details: 24 h
Method: as §3

MCF7 cells [6] = assay: Glucose uptake and lactate release, enzymatic; type: cell-based, human; details: 24 h
Method: as §3

4T1 cells [7] = assay: Glucose uptake and lactate release, enzymatic; type: cell-based, mouse; details: DXR 0.1 μg/mL, 24 h
Method: as §3

MCF7 cells [8] = assay: Mitochondrial superoxide, mitoSOX FACS; type: cell-based, human; details: DXR 0.1 μg/mL, 24 h
Method: as §1

MCF7 cells [9] = assay: Migration towards 0.5% serum, chemotaxis chamber; type: cell-based, human; details: low dose DXR, 0.1 μg/mL, 16 h pretreatment, 6 h recovery
Method: as §2

4T1 cells [10] = assay: Invasion, Matrigel-coated transwells; type: cell-based, mouse; details: low dose DXR, 0.1 μg/mL, 16 h pretreatment, 6 h recovery
Method: as §2

MDA-MB-231 cells = assay: RT-qPCR of biomarker signature after SKQ1; type: cell-based, human; details: 500 nM SKQ1, 48 h
Method: (§4) Total mRNA from MDA-MB-231 or SkBr-3 human breast cancer cells treated ±500 nM SKQ1 for 48 h (Alexandr V. et al. Int. J. Cancer 2016; 139, 130-139) was extracted using the Tri reagent (Brunschwig Chemie®, cat #TR118). mRNAs were quantified by NanoDrop™1000 (Thermo Fisher Scientific®), and were reverse-transcribed in complementary DNAs using the high-capacity cDNA Reverse Transcription Kit (Thermo Fisher Scientific®, cat #4368814) according to manufacturer's protocol. Complementary DNAs (500 ng per sample) were amplified by RT-qPCR using the ROX SYBR Master Mix dTTP Blue (Eurogentec®) and primers listed in Table 5 and Table 6 on a CFX96 Real Time PCR system (BioRad®). Gene expression was normalized to […] gene expression.

SkBr3 cells = assay: RT-qPCR of biomarker signature after SKQ1; type: cell-based, human; details: 500 nM SKQ1, 48 h
Method: as §4

MDA-MB-436 cells = assay: RT-qPCR of biomarker signature after SKQ1; type: cell-based, human; details: 500 nM SKQ1, 48 h

N.N.[Cl][Pt][Cl] [cisplatin]
mitochondrial superoxide production at the ETC ([1]; increasing doses of cisplatin, 48 h): induce
mitochondrial superoxide production at the ETC [2]: induce
cancer cell migration (4T1 cells [3]; cisplatin 77.76 μM): induced

CC1(C)CC(NC(=O)C[P+](c2ccccc2)(c2ccccc2)c2ccccc2)CC(C)(C)N1[O] [MitoTEMPO]
cancer metastasis in breast cancer-bearing animals treated with DXR (4T1 breast tumors): inhibit

COc1cccc2c1C(=O)c1c(O)c3c(c(O)c1C2=O)C[C@@](O)(C(=O)CO)C[C@@H]3O[C@H]1C[C@H](N)[C@H](O)[C@H](C)O1 [doxorubicin]
mitochondrial oxygen consumption rate (mtOCR) ([4]; DXR low doses, 0.1 to 0.01 μg/mL): increased
leak of protons at the electron transport chain (ETC) ([4]; increasing doses of DXR): dose dependent leak
mtOCR ([5]; Low-dose DXR): increased
leak of protons at the electron transport chain (ETC) ([5]; increasing doses of DXR): dose dependent leak
glucose uptake (MCF7 cells [6]; DXR 0.1 μg/mL): significantly increasing
glycolysis (MCF7 cells [6]; DXR 0.1 to 0.01 μg/mL range): little effect
glycolysis (4T1 cells [7]): little effect
lactate release (4T1 cells [7]): significantly decreasing
production of mitochondrial superoxide at the ETC (MCF7 cells [8]): increased production
production of mitochondrial superoxide at the ETC ([1]; DXR 0.1 μg/mL, 24 h): increased production
cell migration (MCF7 cells [9]): stimulated
cell migration (4T1 cells [3]; low dose DXR, 0.1 μg/mL): stimulated
cell invasion (4T1 cells [10]): stimulated

CC1=C(C)C(=O)C(CCCCCCCCCC[P+](c2ccccc2)(c2ccccc2)c2ccccc2)=CC1=O.[Br-] [SKQ1, [10-(4,5-dimethyl-3,6-dioxo-1,4-cyclohexadien-1-yl)decyl]triphenyl-phosphonium, monobromide]
amplitude of the change in NUPR1 expression (MDA-MB-231 cells): +676%
amplitude of the change in SERPIN1 expression (MDA-MB-231 cells): +63%
amplitude of the change in SNAI1 expression (MDA-MB-231 cells): −21%
amplitude of the change in SOX2 expression (MDA-MB-231 cells): −52%
genes of the complete biomarker signature with the expected gene expression changes (MDA-MB-231 cells): 12 of the 15
PHGDH-1 expression increased by (MDA-MB-231 cells; P<0.005): 5.36 fold
PSAT1 expression increased by (MDA-MB-231 cells; P<0.005): 3.43 fold
SLC7A11 expression increased by (MDA-MB-231 cells; P<0.005): 2.35 fold
TXNRD1 expression increased by (MDA-MB-231 cells; P<0.005): 1.69 fold
gene expression of ASNS (MDA-MB-231 cells; P<0.005): increased
gene expression of G6PD (MDA-MB-231 cells; P<0.005): increased
gene expression of NUPR1 (MDA-MB-231 cells; P<0.005): increased
gene expression of PCK2 (MDA-MB-231 cells; P<0.005): increased
gene expression of SLC6A9 (MDA-MB-231 cells; P<0.005): increased
gene expression of SOX2 (MDA-MB-231 cells; P<0.005): decreased
SERPINE1 expression increased by (MDA-MB-231 cells; P<0.01): 1.63 fold
expected gene expression changes that were statistically significant (MDA-MB-231 cells; among 12 genes): 11
gene expression of SNAI1 (MDA-MB-231 cells; not significant, P=0.4575): decreased
amplitude of the change in NUPR1 expression (SkBr3 cells): +25%
amplitude of the change in SLC7A11 expression (SkBr3 cells): +565%
amplitude of the change in SOX2 expression (SkBr3 cells): −95%
amplitude of the change in VIM expression (SkBr3 cells): −19%
genes of the complete biomarker signature with the expected gene expression changes (SkBr3 cells): 13 of the 15
SLC7A11 expression increased by (SkBr3 cells; P<0.005): 6.65 fold
TXNRD1 expression increased by (SkBr3 cells; P<0.005): 3.20 fold
gene expression of PCK2 (SkBr3 cells; P<0.005): increased
gene expression of SOX2 (SkBr3 cells; P<0.005): decreased
PHGDH-1 expression increased by (SkBr3 cells; P<0.01): 2.26 fold
PSAT1 expression increased by (SkBr3 cells; P<0.01): 2.26 fold
gene expression of ASNS (SkBr3 cells; P<0.01): increased
gene expression of ZEB1 (SkBr3 cells; P<0.05): decreased
SERPINE1 expression increased by (SkBr3 cells; P=0.0732): 1.45 fold
expected gene expression changes that were statistically significant (SkBr3 cells; among 13 genes): 8
gene expression of NANOG (SkBr3 cells; not significant, P=0.1539): decreased
gene expression of NUPR1 (SkBr3 cells; not significant, P=0.2615): increased
gene expression of VIM (SkBr3 cells; not significant, P=0.3557): decreased
gene expression of G6PD (SkBr3 cells; only 2 replicates): increased
amplitude of the change in ASNS expression (MDA-MB-436 cells): +526%
amplitude of the change in G6PD expression (MDA-MB-436 cells): +22%
amplitude of the change in SNAI1 expression (MDA-MB-436 cells): −12%
amplitude of the change in SOX2 expression (MDA-MB-436 cells): −67%
genes of the complete biomarker signature with the expected gene expression changes (MDA-MB-436 cells): 14 of the 15
PHGDH-1 expression increased by (MDA-MB-436 cells; P<0.005): 2.51 fold
PSAT1 expression increased by (MDA-MB-436 cells; P<0.005): 2.53 fold
TXNRD1 expression increased by (MDA-MB-436 cells; P<0.005): 2.11 fold
gene expression of ASNS (MDA-MB-436 cells; P<0.005): increased
gene expression of NUPR1 (MDA-MB-436 cells; P<0.005): increased
gene expression of PCK2 (MDA-MB-436 cells; P<0.005): increased
gene expression of SLC6A9 (MDA-MB-436 cells; P<0.005): increased
SERPINE1 expression increased by (MDA-MB-436 cells; P<0.01): 1.46 fold
SLC7A11 expression increased by (MDA-MB-436 cells; P<0.01): 3.60 fold
gene expression of SOX2 (MDA-MB-436 cells; P<0.05): decreased
expected gene expression changes that were statistically significant (MDA-MB-436 cells; among 14 genes): 10
gene expression of G6PD (MDA-MB-436 cells; not significant, P=0.0974): increased
gene expression of NANOG (MDA-MB-436 cells; not significant, P=0.5663): decreased
gene expression of SNAI1 (MDA-MB-436 cells; not significant, P=0.6013): decreased
gene expression of ZEB1 (MDA-MB-436 cells; not significant, P=0.6890): decreased
